Experimental data taken from patent US5773459A, “Urea- and thiourea-type compounds” (Sugen, Inc., priority 1995, dated 1998).
Read-outs that look alike come from different tables or passages of the source.

How the values were obtained:
[1] = biological target: T1, IGF-1R (Homo sapiens, UniProt P08069); experiment: Cellular IGF-1 Receptor ELISA; assay type: cell-based
T1 construct: expressed in transfected cells; host or cells: 3T3/IGF-1R
Method: Cellular IGF-1 Receptor ELISA (Version I)
(1). The cell line used in this assay is 3T3/IGF-1R, a cell line which overexpresses IGF-1 Receptor.
(2). 3T3/IGF-1 R is grown in an incubator with 5% CO2 at 37° C. The growth media is DMEM+10% FBS (heat inactivated)+2 mM L-Glutamine.
(3). For ELISA plate coating, the anti-IGF-1 R antibody named 17-69 is used. Antibodies are purified by the Enzymology Lab, SUGEN, Inc.
(10). Insulin-like growth factor-1 from Promega (Cat# G5111).
(2). […] Incubate for 1 day then replace medium to serum-free medium (90/ul) and incubate in 5% CO2 and 37° C. overnight.
2. ELISA Plate Coating and Blocking
(2). Remove the coating solution, and replace with 100 ul Blocking Buffer, and shake for 30 minutes. Remove the blocking buffer and wash the plate just before adding lysate.
(1). The drugs are tested in serum-free condition.
(2). Dilute drug stock (in 100% DMSO) 1:10 with DMEM in 96-well poly-propylene plate, and transfer 10 ul/well of this solution to the cells to achieve final drug dilution 1:100, and final DMSO concentration of 1.0%. Incubate the cells in 5% CO2 at 37° C for 2 hours.
(3). Prepare fresh cell lysis buffer (HNTG HNTG 2 ml EDTA 0.1 ml Na3VO4 0.1 ml Na4P207 0.1 ml H20 7.3 ml HNTG* 10 ml.
(4). After drug incubation for two hours, transfer 10 ul/well of 200 nM IGF-1 Ligand in PBS to the cells (Final Conc=20 nM), and incubate at 5% CO2 at 37° C. for 10 minutes.
(5). Remove media and add 100 ul/well HNTG* and shake for 10 minutes. Look at cells under microscope to see if they are adequately lysed.
(6). Use a 12-channel pipette to scrape the cells from the plate, and homogenize the lysate by repeat aspiration and dispense. Transfer all the lysate to the antibody coated ELISA plate [V.2.(2)], and shake for 1 hour.
(7). Remove the lysate, wash the plate, transfer anti-pTyr (1:3,000 with TBST) 100 ul/well, and shake for 30 minutes.
(7). Remove anti-pTyr, wash the plate, transfer detection antibody (1:3,000 with TBST) 100 ul/well, and shake for 30 minutes.
(8). Remove detection antibody, wash the plate, and transfer fresh ABTS/H2O2 (1.2 ul H2O2 to 10 ml ABTS) 100 ul/well to the plate to start color development.
(9). Measure OD (410 nm) in Dynatec MR5000, which is connected to Ingres.

[2] = system: chimeric receptor containing the EGFR extracellular domain and the HER2 intracellular kinase domain; experiment: EGFR-HER2 chimeric receptor assay, HER2 kinase activity in whole NIH3T3 cells; assay type: cell-based; conditions: NIH3T3 cells with EGFR-HER2 chimera, EGF stimulated; read-out: ELISA DATA: HER2 - (3T3)
Text: The following examples illustrate the ability of the exemplary compounds to inhibit receptor tyrosine kinases, such as HER2 and/or EGFR. The following target cells were used for cellular kinase assays: NIH3T3 clone C7 (Honegger et al., supra) engineered to over-express human EGF receptor; NIH3T3 cells engineered to over-express a chimeric receptor containing the EGFR extracellular domain and the HER2 intracellular kinase domain; the human mammary carcinoma line BT474 (ATCC HTB2) expressing HER2; and the human glioblastoma line U1242 that expresses PDGFR-beta. Growth assays were carried out using human mammary epithelial SKBR3 (ATCC HTB30) cells (SKBR3 cells over-express HER2), SKOV3 (ATCC HTB77) human ovarian cancer cell line (SKOV3 cells also over-express HER2), A431 cells (A431 cells over-express EGFR) MCF7 human breast carcinoma cells, MCF7 cells overexpressing the HER2 kinase (MCF7-HER2), NIH3T3 cells, and NIH3T3 cells overexpressing the HER2 kinase (3T3-HER2.
EGFR-HER2 Chimeric Recetor
HER2 kinase activity (EGFR-3T3) in whole cells was measured as described below:
The materials and regeants are identical to these used in example 1, the EGFR whole cell kinase assay.
A. Coat ELISA plates (Corning, 96 well, Cat. #25805-96) with 05-101 antibody at 0.5 μg per well in PBS, 100 μl final volume/well, and store overnight at 4.sunburst.C. Coated plates are good for up to 10 days when stored at 4° C.
B. On day of use, remove coating buffer and replace with 100 μl blocking buffer (5% Carnation Instant Non-Fat Dry Milk in PBS). Incubate the plate, shaking, at room temperature (about 23.sunburst.C to 25.sunburst.C) for 30 minutes. Just prior to use, remove blocking buffer and wash plate 4 times with TBST buffer.
A. An NIH3T3 cell line overexpressing a chimeric receptor containing the EGFR extracellular domain and […] can be used for this assay.
B. Choose dishes having 80-90% confluence for the experiment. Trypsinize cells and stop reaction by adding 10% fetal bovine serum. Suspend cells in DMEM medium (10% CS DMEM medium) and centrifuge once at 1500 rpm, at room temperature for 5 minutes.
C. Resuspend cells in seeding medium (DMEM, 0.5% bovine serum) , and count the cells using trypan blue. Viability above 90% is acceptable. Seed cells in DMEM medium (0.5% bovine serum) at a density of 10,000 cells per well, 100 μl per well, in a 96 well microtiter plate. Incubate seeded cells in 5% CO2 at 37.sunburst.C for about 40 hours.
A. Check seeded cells for contamination using an inverted microscope. Dilute drug stock (10 mg/ml in DMSO) 1:10 in DMEM medium, then transfer 5 l to a […] well for a final drug dilution of 1:200 and a final DMSO concentration of 1%. Control wells receive DMSO alone. Incubate in 5% CO2 at 37° C. for two hours. […]

[3] = 3T3/IGF-1R cells, IGF-1 stimulated, read-out: ELISA DATA: IGF-1R

T1 sequence (P08069 31-1367): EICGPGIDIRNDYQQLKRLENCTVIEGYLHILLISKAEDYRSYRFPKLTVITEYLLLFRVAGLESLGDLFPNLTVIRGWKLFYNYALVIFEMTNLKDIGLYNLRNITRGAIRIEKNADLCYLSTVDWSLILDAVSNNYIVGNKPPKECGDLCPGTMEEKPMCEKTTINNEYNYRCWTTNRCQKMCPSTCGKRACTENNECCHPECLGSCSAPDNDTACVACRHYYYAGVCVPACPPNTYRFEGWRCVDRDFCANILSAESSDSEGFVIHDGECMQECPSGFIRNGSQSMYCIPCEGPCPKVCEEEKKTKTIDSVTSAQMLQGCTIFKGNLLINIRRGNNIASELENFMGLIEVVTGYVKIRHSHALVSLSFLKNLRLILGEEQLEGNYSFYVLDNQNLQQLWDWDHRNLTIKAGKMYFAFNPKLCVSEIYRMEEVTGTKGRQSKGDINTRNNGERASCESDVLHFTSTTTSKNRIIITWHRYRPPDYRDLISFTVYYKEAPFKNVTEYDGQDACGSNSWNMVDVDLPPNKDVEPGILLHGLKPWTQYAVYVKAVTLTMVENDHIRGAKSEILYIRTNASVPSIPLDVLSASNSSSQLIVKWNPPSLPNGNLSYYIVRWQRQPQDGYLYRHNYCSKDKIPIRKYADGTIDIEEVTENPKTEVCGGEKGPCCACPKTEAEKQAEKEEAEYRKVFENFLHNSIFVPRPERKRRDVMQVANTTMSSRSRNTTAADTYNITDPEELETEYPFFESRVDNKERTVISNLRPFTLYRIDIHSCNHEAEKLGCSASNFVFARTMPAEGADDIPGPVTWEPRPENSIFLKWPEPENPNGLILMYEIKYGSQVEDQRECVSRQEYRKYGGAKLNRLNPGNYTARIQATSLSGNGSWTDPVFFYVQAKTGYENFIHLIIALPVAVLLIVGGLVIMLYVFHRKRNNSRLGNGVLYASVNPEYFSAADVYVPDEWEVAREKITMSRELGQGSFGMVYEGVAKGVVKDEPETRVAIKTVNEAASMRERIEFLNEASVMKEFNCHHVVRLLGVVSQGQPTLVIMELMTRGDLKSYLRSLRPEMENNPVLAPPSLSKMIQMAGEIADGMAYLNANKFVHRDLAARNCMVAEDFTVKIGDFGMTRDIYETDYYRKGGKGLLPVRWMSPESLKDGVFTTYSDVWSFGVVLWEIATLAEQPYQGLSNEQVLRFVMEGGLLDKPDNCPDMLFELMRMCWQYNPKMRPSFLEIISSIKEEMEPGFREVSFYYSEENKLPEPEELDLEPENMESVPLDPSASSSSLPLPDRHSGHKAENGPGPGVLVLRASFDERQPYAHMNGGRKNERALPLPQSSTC

Row | Structure (SMILES) | IC50 [1, 3] | IC50 [2] | IC50 [1]
1 | CC(C)S(=O)(=O)c1csc(NC(=O)Nc2ccc(C(C)(C)C)cc2)c1Cl [Example Z1, N-[3-Chloro-4-(isopropylsulfonyl)thien-2-yl]-N'-(4-t-butylphenyl)urea] | > 100 µM | 10.3 µM | 
2 | N#Cc1ccc(NC(=S)Nc2ccc(S(=O)(=O)N3CCCCC3)cc2)cc1 [Example Z4, N-(4-Cyanophenyl)-N'-[4-[(piperid-1-yl)sulfonyl]phenyl]thiourea] | > 100 µM | > 100 µM | 
3 | CC(C)S(=O)(=O)c1csc(NC(=O)Nc2cc(C(F)(F)F)cc(C(F)(F)F)c2)c1Cl [Example Z2, N-[3-Chloro-4-(isopropylsulfonyl)thien-2-yl]-N'-(3,5-di-trifluoromethylphenyl)urea] | > 100 µM | 31.7 µM | 
4 | O=C(Nc1ccc(SC(F)(F)F)cc1)Nc1ccc(Oc2ccc(Cl)cc2Cl)nc1 [Example Z3] |  | > 100 µM | 16.5 µM
